Measured values as given in article PMC11206396 (Chemical Science, 2024).
Read-outs that look alike come from different tables or passages of the source. Positions of bridges follow the written chain, without caps; N, C: chain ends. Residues, ends and D or L forms follow the SMILES beside them. Chains are numbered I, II in the order given. *: point of attachment. X5 = Cc1cc(NC(=O)CCC(=O)O)ccc1-c1cc(CN2CCN(CC(=O)O)CCN(CC(=O)O)CCN(CC(=O)O)CC2)nc(C(=O)*)c1; X2 = CC(=O)Nc1ccc(-c2cc(CN3CCN(CC(=O)O)CCN(CC(=O)O)CCN(CC(=O)O)CC3)nc(C(=O)*)c2)c(C)c1; X4 = Cc1cc(NC(=O)CCN)ccc1-c1cc(CN2CCN(CC(=O)O)CCN(CC(=O)O)CCN(CC(=O)O)CC2)nc(C(=O)*)c1; X1 = CC(=O)Nc1ccc(-c2cc(CN3CCN(CC(=O)O)CCN(CC(=O)O)CCN(CC(=O)O)CC3)nc(C(=O)*)c2)cc1; X3 = COc1ccc(-c2cc(CN3CCN(CC(=O)O)CCN(CC(=O)O)CCN(CC(=O)O)CC3)nc(C(=O)*)c2)c(C)c1

Legend:
HeLa cells [1] = assay: Two-photon microscopy (2PM) imaging of live cells: internalization and cytosolic delivery; type: cell-based; details: for co-internalization of a Tb3+/Eu3+ probe mixture: 1 h, Tb probe 10 μM + dTAT[Eu·L-Ar-NHAc] 5 μM; for co-internalization of a Tb3+/Eu3+ probe mixture / cytosolic delivery (diffuse Ln3+ emission): 2P excitation 720 nm; for cytosolic delivery (diffuse Ln3+ emission): 10 μM
HEK293T cells = assay: as above; type: cell-based; details: 1 h, 10 μM
Experimental: (§1) Fig. 7 2PM imaging (λex = 720 nm) of living HEK293T (A) and MRC5 (B) cells incubated 1 h with dTAT[Eu·L-Ar-NHAc] (10 μM) in RPMI medium. Top: DIC, emission recorded using a 465–680 nm bp filter and merge; Bottom: linear unmixing of autofluorescence (AF) and Eu^3+ emission and merge. Scale bars correspond to 10 μm. […]
(§2) dependence for each sample (Fig. S9), the incident power was adjusted to 35 mW to characterize the two-photon absorption spectra. Calibration of the 2P absorption spectra was performed at each excitation wavelength by comparison with that of fluorescein (10 µM, pH 11) as reference compound.[12]
(§3) General: HeLa, MRC5 and HEK293 cell lines were purchased from the ATCC and agreed by French ethic boards […]
(§4) Cell culture: HeLa cells were grown in RPMI medium supplemented with 10% fetal bovine serum (v/v) at 37°C in a 5% CO2 humidified atmosphere.
(§5) Peptides delivery in live cells: HeLa cells were seeded at 3´10^4 cells/well onto an 8-chamber Labtek-I coverglass system.
(§6) After 24 h, cells were washed three times with PBS. Cells were incubated with dTAT [Ln·L] (10 µM) in RPMI medium (without phenol red and without serum) or PBS at 37°C for 1 h. […]
(§7) Temporal Sampling Lifetime Imaging Microscopy (TSLIM) was used to record luminescence lifetime decay in cells (single pulsed excitation with the 7.56 μs temporal resolution).[13] […]

MRC5 cells = assay: as above; type: cell-based; details: 1 h, 10 μM
Experimental: as §1, §2, §3, §4, §5, §6, §7

HeLa cells [2] = assay: MTT proliferation assay (cytotoxicity)
[3] = live HeLa cells, 1 h incubation
[4] = read-out: IC50 (concentration causing a 50% reduction in proliferation), MTT proliferation assay, 2 h incubation

Row | SMILES | co-internalization of a Tb3+/Eu3+ probe mixture (HeLa cells [1]; HeLa cells) | cytosolic delivery (diffuse Ln3+ emission) (HeLa cells [1]; [3]) | IC50 (HeLa cells [2]; [4]) [µM] | other results
1 | CC(=O)Nc1ccc(-c2cc(CN3CCN(CC(=O)O)CCN(CC(=O)O)CCN(CC(=O)O)CC3)nc(C(=O)NCCCC[C@H](NC(=O)[C@@H](N)CSSC[C@H](N)C(=O)N[C@@H](CCCCNC(=O)c3cc(-c4ccc(NC(C)=O)cc4)cc(CN4CCN(CC(=O)O)CCN(CC(=O)O)CCN(CC(=O)O)CC4)n3)C(=O)N[C@@H](CCCNC(=N)N)C(=O)N[C@@H](CCCCN)C(=O)N[C@@H](CCCCN)C(=O)N[C@@H](CCCNC(=N)N)C(=O)N[C@@H](CCCNC(=N)N)C(=O)N[C@@H](CCC(N)=O)C(=O)N[C@@H](CCCNC(=N)N)C(=O)N[C@@H](CCCNC(=N)N)C(=O)N[C@@H](CCCNC(=N)N)C(=O)NCC(N)=O)C(=O)N[C@@H](CCCNC(=N)N)C(=O)N[C@@H](CCCCN)C(=O)N[C@@H](CCCCN)C(=O)N[C@@H](CCCNC(=N)N)C(=O)N[C@@H](CCCNC(=N)N)C(=O)N[C@@H](CCC(N)=O)C(=O)N[C@@H](CCCNC(=N)N)C(=O)N[C@@H](CCCNC(=N)N)C(=O)N[C@@H](CCCNC(=N)N)C(=O)NCC(N)=O)c2)cc1 [dTAT[Eu·L-Ar-NHAc]] (I: H-CK(X1)RKKRRQRRRG-NH2 / II: H-CK(X1)RKKRRQRRRG-NH2; disulfide I:1-II:1; N-terminus assumed) | co-internalized | cytosolic delivery |  | number of cells showing cytosolic staining (diffuse Eu3+ emission) (HeLa cells [1]; HeLa cells, 5 μM, 1 h incubation, over 6 hours after washing, determined visually): 34–38%; cell staining pattern at low concentration (HeLa cells [1]; live HeLa cells, 2.5 μM, 1 h incubation): only show punctate Eu^3+ around the nucleus; cytosolic delivery (diffuse Eu3+ localization) (HEK293T cells): successful cytosolic delivery; cytosolic delivery (diffuse Eu3+ localization) (MRC5 cells): successful cytosolic delivery; toxicity at the concentration used for 2PM (HeLa cells [2]; MTT assay, 10 μM): no toxicity
2 | CC(=O)Nc1ccc(-c2cc(CN3CCN(CC(=O)O)CCN(CC(=O)O)CCN(CC(=O)O)CC3)nc(C(=O)NCCCC[C@H](NC(=O)[C@@H](N)CSSC[C@H](N)C(=O)N[C@@H](CCCCNC(=O)c3cc(-c4ccc(NC(C)=O)cc4C)cc(CN4CCN(CC(=O)O)CCN(CC(=O)O)CCN(CC(=O)O)CC4)n3)C(=O)N[C@@H](CCCNC(=N)N)C(=O)N[C@@H](CCCCN)C(=O)N[C@@H](CCCCN)C(=O)N[C@@H](CCCNC(=N)N)C(=O)N[C@@H](CCCNC(=N)N)C(=O)N[C@@H](CCC(N)=O)C(=O)N[C@@H](CCCNC(=N)N)C(=O)N[C@@H](CCCNC(=N)N)C(=O)N[C@@H](CCCNC(=N)N)C(=O)NCC(N)=O)C(=O)N[C@@H](CCCNC(=N)N)C(=O)N[C@@H](CCCCN)C(=O)N[C@@H](CCCCN)C(=O)N[C@@H](CCCNC(=N)N)C(=O)N[C@@H](CCCNC(=N)N)C(=O)N[C@@H](CCC(N)=O)C(=O)N[C@@H](CCCNC(=N)N)C(=O)N[C@@H](CCCNC(=N)N)C(=O)N[C@@H](CCCNC(=N)N)C(=O)NCC(N)=O)c2)c(C)c1 [dTAT[Tb·L-^MeAr-NHAc]] (I: H-CK(X2)RKKRRQRRRG-NH2 / II: H-CK(X2)RKKRRQRRRG-NH2; disulfide I:1-II:1) |  | cytosolic delivery | 7.6 ± 1.6 | IC50 (HeLa cells [2]; read-out: IC50 (concentration causing a 50% reduction in proliferation), MTT proliferation assay, 2 h incubation, listed as dTAT[Tb·L-^MeAr-HNAc]): < 10 µM
3 | Cc1cc(NC(=O)CCC(=O)O)ccc1-c1cc(CN2CCN(CC(=O)O)CCN(CC(=O)O)CCN(CC(=O)O)CC2)nc(C(=O)NCCCC[C@H](NC(=O)[C@@H](N)CSSC[C@H](N)C(=O)N[C@@H](CCCCNC(=O)c2cc(-c3ccc(NC(=O)CCC(=O)O)cc3C)cc(CN3CCN(CC(=O)O)CCN(CC(=O)O)CCN(CC(=O)O)CC3)n2)C(=O)N[C@@H](CCCNC(=N)N)C(=O)N[C@@H](CCCCN)C(=O)N[C@@H](CCCCN)C(=O)N[C@@H](CCCNC(=N)N)C(=O)N[C@@H](CCCNC(=N)N)C(=O)N[C@@H](CCC(N)=O)C(=O)N[C@@H](CCCNC(=N)N)C(=O)N[C@@H](CCCNC(=N)N)C(=O)N[C@@H](CCCNC(=N)N)C(=O)NCC(N)=O)C(=O)N[C@@H](CCCNC(=N)N)C(=O)N[C@@H](CCCCN)C(=O)N[C@@H](CCCCN)C(=O)N[C@@H](CCCNC(=N)N)C(=O)N[C@@H](CCCNC(=N)N)C(=O)N[C@@H](CCC(N)=O)C(=O)N[C@@H](CCCNC(=N)N)C(=O)N[C@@H](CCCNC(=N)N)C(=O)N[C@@H](CCCNC(=N)N)C(=O)NCC(N)=O)c1 [dTAT[Tb·L-^MeAr-NHSuc(−)]] (I: H-CK(X5)RKKRRQRRRG-NH2 / II: H-CK(X5)RKKRRQRRRG-NH2; disulfide I:1-II:1) |  | efficiently delivered to the cytosol |  | 
4 | Cc1cc(NC(=O)CCN)ccc1-c1cc(CN2CCN(CC(=O)O)CCN(CC(=O)O)CCN(CC(=O)O)CC2)nc(C(=O)NCCCC[C@H](NC(=O)[C@@H](N)CSSC[C@H](N)C(=O)N[C@@H](CCCCNC(=O)c2cc(-c3ccc(NC(=O)CCN)cc3C)cc(CN3CCN(CC(=O)O)CCN(CC(=O)O)CCN(CC(=O)O)CC3)n2)C(=O)N[C@@H](CCCNC(=N)N)C(=O)N[C@@H](CCCCN)C(=O)N[C@@H](CCCCN)C(=O)N[C@@H](CCCNC(=N)N)C(=O)N[C@@H](CCCNC(=N)N)C(=O)N[C@@H](CCC(N)=O)C(=O)N[C@@H](CCCNC(=N)N)C(=O)N[C@@H](CCCNC(=N)N)C(=O)N[C@@H](CCCNC(=N)N)C(=O)NCC(N)=O)C(=O)N[C@@H](CCCNC(=N)N)C(=O)N[C@@H](CCCCN)C(=O)N[C@@H](CCCCN)C(=O)N[C@@H](CCCNC(=N)N)C(=O)N[C@@H](CCCNC(=N)N)C(=O)N[C@@H](CCC(N)=O)C(=O)N[C@@H](CCCNC(=N)N)C(=O)N[C@@H](CCCNC(=N)N)C(=O)N[C@@H](CCCNC(=N)N)C(=O)NCC(N)=O)c1 [dTAT[Tb·L-^MeAr-NHβAla(+)]] (I: H-CK(X4)RKKRRQRRRG-NH2 / II: H-CK(X4)RKKRRQRRRG-NH2; disulfide I:1-II:1) | co-internalized | efficiently delivered to the cytosol |  | 
5 | COc1ccc(-c2cc(CN3CCN(CC(=O)O)CCN(CC(=O)O)CCN(CC(=O)O)CC3)nc(C(=O)NCCCC[C@H](NC(=O)[C@@H](N)CSSC[C@H](N)C(=O)N[C@@H](CCCCNC(=O)c3cc(-c4ccc(OC)cc4C)cc(CN4CCN(CC(=O)O)CCN(CC(=O)O)CCN(CC(=O)O)CC4)n3)C(=O)N[C@@H](CCCNC(=N)N)C(=O)N[C@@H](CCCCN)C(=O)N[C@@H](CCCCN)C(=O)N[C@@H](CCCNC(=N)N)C(=O)N[C@@H](CCCNC(=N)N)C(=O)N[C@@H](CCC(N)=O)C(=O)N[C@@H](CCCNC(=N)N)C(=O)N[C@@H](CCCNC(=N)N)C(=O)N[C@@H](CCCNC(=N)N)C(=O)NCC(N)=O)C(=O)N[C@@H](CCCNC(=N)N)C(=O)N[C@@H](CCCCN)C(=O)N[C@@H](CCCCN)C(=O)N[C@@H](CCCNC(=N)N)C(=O)N[C@@H](CCCNC(=N)N)C(=O)N[C@@H](CCC(N)=O)C(=O)N[C@@H](CCCNC(=N)N)C(=O)N[C@@H](CCCNC(=N)N)C(=O)N[C@@H](CCCNC(=N)N)C(=O)NCC(N)=O)c2)c(C)c1 [dTAT[Tb·L-^MeAr-OMe]] (I: H-CK(X3)RKKRRQRRRG-NH2 / II: H-CK(X3)RKKRRQRRRG-NH2; disulfide I:1-II:1) |  | successful cytosolic delivery | 18 ± 3 | 
